Laboratory results reported in patent US12121514B2, “Nonselective metabotropic glutamate receptor activators for treatment of attention deficit disorder and 22Q syndrome” (THE CHILDREN'S HOSPITAL OF PHILADELPHIA, priority 2015, dated 2024).

Experiments:
[1] = tested on: subject with ADHD, ODD and conduct disorder (CD); test: Vanderbilt CD score (items 27-40), Phase Ib trial of NFC-1; format: in vivo, human; settings: Subject 130
Source text: The Vanderbilt Rating Scale is a measure that can be completed by parents or teachers (separate forms, see Vanderbilt Rating Scale Parents and Vanderbilt Rating Scale Teachers). The Vanderbilt scale rates the child's behavior on items such as attention, finishing tasks, hyperactivity, difficulty waiting, and measures of conduct or oppositional […] disorders-as well as measures of overall school performance and interactions with others. The first 18 items on the Vanderbilt scale correspond to those of the ADHD Rating Scale IV above while the Vanderbilt scale also includes items 19-47 related to other mental disorders including ODD (items 19-26), conduct disorder (items 27-40), anxiety (items 41, 42, and 47), and depression (items 43-46). Each of the behavioral assessment items on the Vanderbilt Scale are rated 0, 1, 2, or 3, with 0=never occurring; 1=occasionally, 2=often, and 3=very often. Thus, the ADHD Rating Scale IV, ADHD Rating Scale V, and items 1-18 of the Vanderbilt Rating Scale are equivalent scales, while additional items on the Vanderbilt Scale assess co-morbid phenotypes and disorders. One subject screening positive for ODD (no. 130) also screened positive for conduct disorder (CD), based on scores of 2 or 3 for 3 out of the […] behaviors assessed by items 27-40 of the Vanderbilt Scale at enrollment and again at week 1. […]

[2] = tested on: adolescent subjects with ADHD and at least one genetic alteration in an mGluR network gene; test: QUOTIENT ADHD test, Phase Ib trial of NFC-1; format: in vivo, human; settings: Tier-1 genetic group; week 5 (400 mg twice daily); from just over 100; P<0.05
Source text: Quotient ADHD scores use a medical device to measure hyperactivity, attention, and impulsivity in patients with ADHD. The Quotient ADHD tool uses motion tracking technology to track a patient's micro-movements while they complete a 15-20-minute computerized test. Following the patient's completion of the test, patterns of motions, the accuracy of responses, and fluctuations in attention state can be analyzed. All efficacy assessments, except actigraphy, were made at study enrollment (“enrollment baseline”) and again, including actigraphy, once-per-week for the placebo week (“week 1” or “placebo baseline”) and at each of the 4 weeks of NFC-1 treatment. These efficacy measures include items 1-18 of the Vanderbilt scale assessing symptoms related to inattentiveness and hyperactivity-impulsiveness as well as additional questions 19-47 of the Vanderbilt scale assessing other behavioral symptoms (conducted by parent), actigraphy for quantitative measurement of activity, Quotient® ADHD test for objective measurement of micro-motion and shifts in attention state, PERMP-Math test, and CGI-I and CGI-S for assessment of global functioning. […]

## O=C1CC[C@H](C(=O)N2CCCCC2)N1 [NFC-1, fasoracetam monohydrate]
[1]; week 1 to week 5
  improvement in Vanderbilt CD score: 4 points
[1]; week 5, out of 16, 16/16 at week 1
  Vanderbilt CD score: 12
[2]
  normalized inattention value (QUOTIENT ADHD test): about 90
